Measurements: ChEMBL document CHEMBL4339208, “6-Bromoindolglyoxylamido derivatives as antimicrobial agents and antibiotic enhancers” (Bioorg Med Chem, 2019)
Values after ≈ are worked out from the molar mass of the structure shown. Active and inactive are the calls of the source. The rule behind the calls is not given here.

What was measured:
Cryptococcus neoformans [1] = test: Antifungal activity against Cryptococcus neoformans ATCC 208821 measured after 36 hrs by resazurin dye based assay; assay type: functional; settings: ATCC 208821, 36 h
Staphylococcus aureus [2] = test: Antibacterial activity against Staphylococcus aureus ATCC 25923 measured after 18 hrs by broth dilution method; assay type: functional; settings: ATCC 25923, 18 h
Erythrocyte [3] = test: Hemolytic activity against human RBC incubated for 10 mins under shaking condition measured after 1 hr; assay type: ADME, cell-based
Pseudomonas aeruginosa [4] = test: Potentiation of doxycycline-induced antibacterial activity against Pseudomonas aeruginosa ATCC 27853 assessed as concentration required to restore 2 ug/ml doxycycline activity measured after 18 hrs; assay type: functional
[5] = tested on: Staphylococcus intermedius; test: Antibacterial activity against Staphylococcus intermedius 1051997 measured after 18 hrs by broth dilution method; assay type: functional; settings: Staphylococcus intermedius, 1051997, 18 h
[6] = Cytotoxicity against HEK293 cells measured after 20 hrs by resazurin dye based fluorescence assay; assay type: cell-based, Homo sapiens; settings: human, HEK293 cells
Klebsiella pneumoniae [7] = test: Antibacterial activity against Klebsiella pneumoniae ATCC 700603 at 32 ug/ml measured after 18 hrs by resazurin dye based assay; assay type: functional, organism-based
Acinetobacter baumannii [8] = test: Antibacterial activity against Acinetobacter baumannii ATCC 19606 at 32 ug/ml measured after 18 hrs by resazurin dye based assay; assay type: functional, organism-based; settings: ATCC 19606 = CIP 70.34 = JCM 6841
Candida albicans [9] = test: Antifungal activity against Candida albicans ATCC 90028 measured after 36 hrs; assay type: functional; settings: ATCC 90028, 36 h
L6 = test: Cytotoxicity against rat L6 cells measured after 72 hrs by alamar blue assay; assay type: cell-based; settings: L6, 72 h
Erythrocyte [10] = test: Hemolytic activity against human RBC at 32 ug/ml incubated for 10 mins under shaking condition measured after 1 hr; assay type: ADME, cell-based
Pseudomonas aeruginosa [11] = test: Antibacterial activity against Pseudomonas aeruginosa ATCC 27853 measured after 18 hrs by broth dilution method; assay type: functional; settings: ATCC 27853, 18 h
Acinetobacter baumannii [12] = test: Antibacterial activity against Acinetobacter baumannii ATCC 19606 measured after 18 hrs by resazurin dye based assay; assay type: functional; settings: ATCC 19606 = CIP 70.34 = JCM 6841, 18 h
Klebsiella pneumoniae [13] = test: Antibacterial activity against Klebsiella pneumoniae ATCC 700603 measured after 18 hrs by resazurin dye based assay; assay type: functional; settings: Klebsiella pneumoniae, 700603, 18 h
Escherichia coli = test: Antibacterial activity against Escherichia coli ATCC 25922 measured after 18 hrs by broth dilution method; assay type: functional; settings: ATCC 25922, 18 h
Cryptococcus neoformans [14] = test: Antifungal activity against Cryptococcus neoformans ATCC 208821 at 32 ug/ml measured after 36 hrs by resazurin dye based assay; assay type: functional, organism-based
Candida albicans [15] = test: Antifungal activity against Candida albicans ATCC 90028 at 32 ug/ml measured after 36 hrs; assay type: functional, organism-based
Staphylococcus aureus [16] = test: Induction of membrane depolarization in Staphylococcus aureus ATCC 25923 measured after 15 mins by DiSC3(5) dye based spectrofluorometric method; assay type: functional, organism-based

In the case of `O=C(NCCCNCCCCCCCCNCCCNC(=O)C(=O)c1c[nH]c2cc(Br)ccc12)C(=O)c1c[nH]c2cc(Br)ccc12.O=C(O)C(F)(F)F.O=C(O)C(F)(F)F`, the MIC (Cryptococcus neoformans [1]) is reported as 32.4 µM, the MIC (Staphylococcus aureus [2]) is reported as 50 µM and the HC10 (Erythrocyte [3]) is reported as > 32 µM. The Activity (Pseudomonas aeruginosa [4]) was 25 µM, the MIC [5] was 12.5 µM and the CC50 at 20 h [6] was 6.2 µM. For the same compound, the Activity (Klebsiella pneumoniae [7]) was “inactive”, the Activity (Acinetobacter baumannii [8]) was “inactive” and the MIC (Candida albicans [9]) was 8.11 µM. The IC50 (L6) was 5.6 µM, the Activity (Erythrocyte [10]) was “Non-Toxic” and the MIC (Pseudomonas aeruginosa [11]) was 6.25 µM. The MIC (Acinetobacter baumannii [12]) was > 32.4 µM, the MIC (Klebsiella pneumoniae [13]) was > 32.4 µM and the MIC (Escherichia coli) was 50 µM.
In the case of `O=C(NCCCNCCNC(=O)C(=O)c1c[nH]c2cc(Br)ccc12)C(=O)c1c[nH]c2cc(Br)ccc12`, the MIC (Cryptococcus neoformans [1]) is reported as > 52 µM, the MIC (Staphylococcus aureus [2]) is reported as 12.5 µM (≈ 7.72 µg/mL) and the Activity (Pseudomonas aeruginosa [4]) is reported as >200 µM. For the same compound, the MIC [5] was 50 µM (≈ 30.9 µg/mL), the Activity (Cryptococcus neoformans [14]) was “inactive” and the CC50 at 20 h [6] was > 52 µM. The Activity (Klebsiella pneumoniae [7]) was “inactive”, the Activity (Candida albicans [15]) was “inactive” and the Activity (Acinetobacter baumannii [8]) was “inactive”. For the same compound, the MIC (Candida albicans [9]) was > 52 µM, the IC50 (L6) was 89.3 µM and the MIC (Pseudomonas aeruginosa [11]) was > 200 µM. For the same compound, the MIC (Acinetobacter baumannii [12]) was > 52 µM, the MIC (Klebsiella pneumoniae [13]) was > 52 µM and the MIC (Escherichia coli) was > 200 µM.
For `CN(C)CCNC(=O)C(=O)c1c[nH]c2cc(Br)ccc12`, the MIC (Cryptococcus neoformans [1]) was > 95 µM, the MIC (Staphylococcus aureus [2]) was > 200 µM and the Activity (Pseudomonas aeruginosa [4]) was >200 µM. For the same compound, the MIC [5] was 12.5 µM (≈ 4.23 µg/mL), the Activity (Cryptococcus neoformans [14]) was “inactive” and the CC50 at 20 h [6] was > 95 µM. For the same compound, the Activity (Klebsiella pneumoniae [7]) was “inactive”, the Activity (Candida albicans [15]) was “inactive” and the Activity (Acinetobacter baumannii [8]) was “inactive”. The MIC (Candida albicans [9]) was > 95 µM, the IC50 (L6) was 99.5 µM and the MIC (Pseudomonas aeruginosa [11]) was > 200 µM. For the same compound, the MIC (Acinetobacter baumannii [12]) was > 95 µM, the MIC (Klebsiella pneumoniae [13]) was > 95 µM and the MIC (Escherichia coli) was > 200 µM.
In the case of `O=C(NCCN1CCOCC1)C(=O)c1c[nH]c2cc(Br)ccc12`, the MIC (Cryptococcus neoformans [1]) is reported as > 84 µM, the MIC (Staphylococcus aureus [2]) is reported as > 200 µM and the Activity (Pseudomonas aeruginosa [4]) is reported as >200 µM. For the same compound, the MIC [5] was 12.5 µM (≈ 4.75 µg/mL), the Activity (Cryptococcus neoformans [14]) was “inactive” and the CC50 at 20 h [6] was > 84 µM. The Activity (Klebsiella pneumoniae [7]) was “inactive”, the Activity (Candida albicans [15]) was “inactive” and the Activity (Acinetobacter baumannii [8]) was “inactive”. The MIC (Candida albicans [9]) was > 84 µM, the IC50 (L6) was 157 µM and the MIC (Pseudomonas aeruginosa [11]) was > 200 µM. For the same compound, the MIC (Acinetobacter baumannii [12]) was > 84 µM, the MIC (Klebsiella pneumoniae [13]) was > 84 µM and the MIC (Escherichia coli) was > 200 µM.
For `O=C(NCCCCNCCCNC(=O)C(=O)c1c[nH]c2cc(Br)ccc12)C(=O)c1c[nH]c2cc(Br)ccc12`, the MIC (Cryptococcus neoformans [1]) was 50 µM (≈ 32.3 µg/mL), the MIC (Staphylococcus aureus [2]) was 3.12 µM (≈ 2.02 µg/mL) and the HC10 (Erythrocyte [3]) was > 50 µM. For the same compound, the Activity (Pseudomonas aeruginosa [4]) was >200 µM, the MIC [5] was 3.12 µM (≈ 2.02 µg/mL) and the CC50 at 20 h [6] was 2.32 µM. The Activity (Klebsiella pneumoniae [7]) was “inactive”, the Activity (Candida albicans [15]) was “inactive” and the Activity (Acinetobacter baumannii [8]) was “inactive”. For the same compound, the MIC (Candida albicans [9]) was > 50 µM, the IC50 (L6) was 8.7 µM and the Activity (Erythrocyte [10]) was “Non-Toxic”. The MIC (Pseudomonas aeruginosa [11]) was 50 µM (≈ 32.3 µg/mL), the MIC (Acinetobacter baumannii [12]) was > 50 µM and the MIC (Klebsiella pneumoniae [13]) was > 50 µM. The MIC (Escherichia coli) was > 200 µM.
For `CC(C)[C@@H](CC[C@@H](C)[C@H]1CC[C@H]2[C@@H]3[C@H](O)C[C@H]4C[C@@H](NCCCNCCCCN)CC[C@]4(C)[C@H]3CC[C@]12C)OS(=O)(=O)O`, the Activity (Staphylococcus aureus [16]) was “Dose-dependent effect”.
With `O=C(NCCCOCCOCCOCCCNC(=O)C(=O)c1c[nH]c2cc(Br)ccc12)C(=O)c1c[nH]c2cc(Br)ccc12` the MIC (Cryptococcus neoformans [1]) was > 44 µM, the MIC (Staphylococcus aureus [2]) was > 200 µM and the Activity (Pseudomonas aeruginosa [4]) was >200 µM. For the same compound, the MIC [5] was 12.5 µM (≈ 9.01 µg/mL), the Activity (Cryptococcus neoformans [14]) was “inactive” and the CC50 at 20 h [6] was > 44 µM. For the same compound, the Activity (Klebsiella pneumoniae [7]) was “inactive”, the Activity (Candida albicans [15]) was “inactive” and the Activity (Acinetobacter baumannii [8]) was “inactive”. For the same compound, the MIC (Candida albicans [9]) was > 44 µM, the IC50 (L6) was 75.4 µM and the MIC (Pseudomonas aeruginosa [11]) was > 200 µM. The MIC (Acinetobacter baumannii [12]) was > 44 µM, the MIC (Klebsiella pneumoniae [13]) was > 44 µM and the MIC (Escherichia coli) was > 200 µM.
With `O=C(NCCCNCCCCCCCNCCCNC(=O)C(=O)c1c[nH]c2cc(Br)ccc12)C(=O)c1c[nH]c2cc(Br)ccc12.O=C(O)C(F)(F)F.O=C(O)C(F)(F)F` the MIC (Cryptococcus neoformans [1]) was > 33 µM, the MIC (Staphylococcus aureus [2]) was 6.4 µM and the HC10 (Erythrocyte [3]) was > 33 µM. The Activity (Pseudomonas aeruginosa [4]) was 12.9 µM, the Activity (Cryptococcus neoformans [14]) was “inactive” and the CC50 at 20 h [6] was 10.6 µM. For the same compound, the Activity (Klebsiella pneumoniae [7]) was “inactive”, the Activity (Acinetobacter baumannii [8]) was “inactive” and the MIC (Candida albicans [9]) was 16.5 µM. The IC50 (L6) was 4.4 µM, the Activity (Erythrocyte [10]) was “Non-Toxic” and the MIC (Pseudomonas aeruginosa [11]) was 51.4 µM. For the same compound, the MIC (Acinetobacter baumannii [12]) was > 33 µM, the MIC (Klebsiella pneumoniae [13]) was > 33 µM and the MIC (Escherichia coli) was 51.4 µM.
